# Measurements: patent publication US7431958B2, “Use of fraction from Cinnamomum zeylanicum for preserving food” (Council of Scientific & Industrial Research, priority 2003, dated 2008)
# Tests used:
# [1] = antioxidant activity using DPPH method
# Source text: The water extract obtained in the above methods was screened for antioxidant activity using 1,1-diphenyl-2-picrylhydrazyl (DPPH) [J. Agricultural and Food Chemistry, 50, 81-86, 2002].
# [2] = antioxidant activity using β-carotene-linoleate model system; conditions: β-carotene-linoleate method
# Source text: The water extract obtained, was screened for antioxidant activity using β-carotene-linoleate model systems.
structure (smiles),measurement,setting,value
"COc1ccc(O)c(C(C)(C)C)c1 [BHA, butylated hydroxyanisole]",antioxidant activity,[1]; 25 ppm,71%
same,antioxidant activity,[1]; 50 ppm,94%
same,antioxidant activity,[2]; 100 ppm,81%
same,antioxidant activity,[2]; 200 ppm,89%
